We go through 15 compounds from patent US4223038A, “Bicyclic β-lactam antibiotics” (Beecham Group Limited, priority 1977, dated 1980).

Read-outs that look alike come from different tables or passages of the source.

Data set [1] has as its target T1, β-lactamase, E. Coli JT4 (Escherichia coli, UniProt P62593).
T1 construct: preparation not described
In words: β-Lactamase inhibition, automated chromagenic substrate assay. It counts as biochemical. The settings on record: read-out: concentration of compound for 50% inhibition of enzyme (converted). As for the experimental part: (§1) Method was automated hydroxyamine assay except for compounds marked + which were tested using the automated chromagenic substrate assay.
(§2) Results are presented as concentration of compounds in μg/ml for 50% inhibition of enzyme, except a percentage indicates amount of inhibition at maximum concentration of 20 μg/ml (50 μg/ml for asterisked figures).

Data set [2] has as its target T2, β-lactamase, Ent. Cloacae P99 (Enterobacter cloacae, UniProt P05364).
T2 construct: preparation not described
Described as above. It counts as biochemical. To be noted: for IC50: read-out: concentration of compound for 50% inhibition of enzyme (converted); for inhibition at 50 µg/mL: at 50 μg/ml (asterisked), read-out: amount of inhibition at maximum concentration. As for the experimental part:
as §1, §2

In data set [3] the target is β-lactamase, Kleb aerog E70. Described as above. Type of data set: biochemical. As to the method:
as §1, §2

Data set [4] concerns the target T3, β-lactamase, Staph aureus Russel (Staphylococcus aureus, UniProt P00807). Described as above. The settings on record: at 50 μg/ml (asterisked), read-out: amount of inhibition at maximum concentration. Type of data set: biochemical. As for the experimental part: as §1, §2
Data set [5] addresses T1, β-lactamase, E. Coli JT4. The experiment in a line: β-Lactamase inhibition, automated hydroxyamine assay. To be noted: for inhibition at 20 µg/mL: read-out: amount of inhibition at maximum concentration; for IC50: maximum concentration 20 μg/ml, read-out: concentration of compound for 50% inhibition of enzyme (converted). It counts as biochemical. As for the experimental part:
as §1, §2

The target in data set [6] is T2, β-lactamase, Ent. Cloacae P99. The description is as above. To be noted: for IC50: maximum concentration 20 μg/ml, read-out: concentration of compound for 50% inhibition of enzyme (converted); for inhibition at 20 µg/mL: at 20 μg/ml, read-out: amount of inhibition at maximum concentration. It counts as biochemical. As to the method:
as §1, §2

The target of data set [7] is β-lactamase, Ps aerug A. Described as above. It counts as biochemical. To be noted: for amount of inhibition at maximum concentration: at 20 μg/ml. As to the method:
as §1, §2

Data set [8] relates to β-lactamase, P. Mirab C889. The description is as above. Type of data set: biochemical. The settings on record: for concentration of compound for 50% inhibition of enzyme: maximum concentration 20 μg/ml. As to the method: as §1, §2
The target of data set [9] is T3, β-lactamase, Staph aureus Russel. The description is as above. Type of data set: biochemical. To be noted: at 20 μg/ml, read-out: amount of inhibition at maximum concentration. As for the experimental part:
as §1, §2

Data set [10] concerns Escherichia coli 8. In words: Antibacterial activity in vivo, mouse intraperitoneal infection. The settings on record: Expt R21 and R23. As for the experimental part: (§3) Antibacterial activity in vivo [drawing 117] Experimental model: Mouse intraperitoneal infection Micro-organism: Escherichia coli 8 suspended in 3% AL1 mucin plus 1% carboxymethylcellulose
(§4) Dosing route: Subcutaneous
(§5) Dosing schedule: 1, 1.5, 2, 2.5 hours after infection

Data set [11] can be described thus: Tolerance of maximum total dose in the mouse infection experiment. It counts as in vivo. To be noted: mice; subcutaneous; maximum total dose 100 mg/kg. As for the experimental part:
as §3, §4, §5
Maximum total dose was 100 mg/kg and this was tolerated by the mice.

Data set [12] deals with β-lactamase, P. Mirab C889. In words: β-Lactamase inhibition, automated chromagenic substrate assay. It counts as biochemical. As to the method:
as §1, §2

Data set [13] has as its system β-lactamase, Ps aerug A. Described as above. To be noted: at 50 μg/ml (asterisked). Type of data set: biochemical. As to the method: as §1, §2
Setting [14] is: E. Coli JT4 β-lactamase, hydroxyamine assay, at 20 μg/ml.
Setting [15] is: E. Coli JT4 β-lactamase, hydroxyamine assay.

T3 sequence (P00807 25-281): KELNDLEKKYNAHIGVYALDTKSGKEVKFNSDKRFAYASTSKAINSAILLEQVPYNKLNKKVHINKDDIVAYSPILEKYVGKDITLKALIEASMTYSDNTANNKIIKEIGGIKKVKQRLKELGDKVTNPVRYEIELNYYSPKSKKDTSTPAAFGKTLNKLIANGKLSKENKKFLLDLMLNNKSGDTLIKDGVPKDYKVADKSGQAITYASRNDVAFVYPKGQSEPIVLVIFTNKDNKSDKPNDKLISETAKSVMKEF
T2 sequence (P05364 21-381): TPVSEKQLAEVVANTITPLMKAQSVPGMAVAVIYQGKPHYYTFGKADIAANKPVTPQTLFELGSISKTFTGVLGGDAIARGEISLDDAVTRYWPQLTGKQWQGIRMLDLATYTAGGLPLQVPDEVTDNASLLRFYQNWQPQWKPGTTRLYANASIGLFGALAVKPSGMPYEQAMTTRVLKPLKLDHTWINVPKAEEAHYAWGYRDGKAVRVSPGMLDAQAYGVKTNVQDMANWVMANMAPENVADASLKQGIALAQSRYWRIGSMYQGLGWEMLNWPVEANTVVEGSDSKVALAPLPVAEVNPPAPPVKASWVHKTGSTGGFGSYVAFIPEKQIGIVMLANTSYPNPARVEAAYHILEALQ
T1 sequence (P62593 24-286 limits assumed): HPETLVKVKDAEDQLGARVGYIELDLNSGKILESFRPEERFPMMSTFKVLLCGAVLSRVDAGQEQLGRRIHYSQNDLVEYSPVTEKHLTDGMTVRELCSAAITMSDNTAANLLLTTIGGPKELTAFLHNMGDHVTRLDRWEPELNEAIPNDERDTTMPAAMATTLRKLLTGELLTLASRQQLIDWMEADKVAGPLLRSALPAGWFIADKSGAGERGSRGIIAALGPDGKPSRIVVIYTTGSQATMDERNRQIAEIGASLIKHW

For `CC(O)[C@@H]1C(=O)N2C(C(=O)OCc3ccccc3)=C([S+]([O-])c3ccccc3)C[C@H]12` (relative stereo) [Compound 82, Benzyl trans-6-(1-hydroxyethyl)-7-oxo-3-phenylsulphinyl-1-azabicyclo[3.2.0]hept-2-ene-2-carboxylate], the figures for the IC50 in data set [1] and in [2] were 31.6 µM and 46.2 µM, respectively. Further, in data set [3], the “concentration of compound for 50% inhibition of enzyme” value came to 2 µg/mL. The inhibition at 50 µg/mL in data set [4] turned out to be 20%.

Regarding `CC[S+]([O-])C1=C(C(=O)OCc2ccccc2)N2C(=O)[C@@H](C(C)(C)O)[C@H]2C1` (relative stereo) [Compound 84, Benzyl 3-ethylsulphinyl-trans-6-(2-hydroxy-2-propyl)-7-oxo-1-azabicyclo[3.2.0]hept-2-ene-2-carboxylate], in data set [5] (setting [14]), the inhibition at 20 µg/mL turned out to be 16%. Moreover, in data set [6], the IC50 was 10.3 µM. Further, the “concentration of compound for 50% inhibition of enzyme” value in data set [7] (maximum concentration 20 μg/ml) worked out at 12.1 µg/mL.

As for `CC[S+]([O-])C1=C(C(=O)OCc2ccccc2)N2C(=O)[C@@H](C(C)(C)O)[C@H]2C1` (relative stereo) [Compound 86, Benzyl 3-ethylsulphinyl-trans-6-(2-hydroxy-2-propyl)-7-oxo-1-aza-bicyclo[3.2.0]hept-2-ene-2-carboxylate], the IC50 in data set [6] is 6.62 µM.

As for `CC[S+]([O-])C1=C(C(=O)OCc2ccccc2)N2C(=O)[C@H](C(C)(C)O)[C@H]2C1` (relative stereo) [Compound 88, Benzyl 3-ethylsulphinyl-cis-6-(2-hydroxy-2-propyl)-7-oxo-1-azabicyclo[3.2.0]hept-2-ene-2-carboxylate], the IC50 in data set [5] (setting [15]) is 21.2 µM; in data set [6] it was 21.7 µM. Further, the “amount of inhibition at maximum concentration” value (from here on “amount of inhibition”) in [8] (at 20 μg/ml) worked out at 13%; in [7] it was 23%. In addition, the inhibition at 20 µg/mL in [9] stood at 19%.

Consider `CC[S+]([O-])C1=C(C(=O)OCC(=O)c2ccc(Br)cc2)N2C(=O)C(CC=CC(=O)OC)C2C1` (single isomer, unassigned) [Compound 73, p-Bromophenacyl 3-ethylsulphinyl-6-(3-methoxycarbonylprop-2-en-1-yl)-7-oxo-1-azabicyclo[3.2.0]hept-2-ene-2-carboxylate], for which, in [6], the inhibition at 20 µg/mL was found to be 31%. The “concentration of compound for 50% inhibition of enzyme” value in [8] stood at 1.2 µg/mL.

Consider `CC[S+]([O-])C1=C(C(=O)OCc2ccccc2)N2C(=O)CC2C1` (centres unmarked) [Compound 55, Benzyl 3-ethylsulphinyl-7-oxo-1-azabicyclo[3.2.0]hept-2-ene-2-carboxylate], for which, in data set [5], the inhibition at 20 µg/mL was 28%. Besides, in data set [8], the “concentration of compound for 50% inhibition of enzyme” value came out at 4 µg/mL. Moreover, the ED50 in data set [10] (Escherichia coli, 8, sc, 2.5 h, mouse i.p. infection with Escherichia coli 8, subcutaneous dosing 1, 1.5, 2, 2.5 hours after infection, total dose, read-out: CD50 Value mg/kg (total dose)) is 5.2 mg/kg. Moreover, in data set [10] (mouse i.p. infection with Escherichia coli 8, subcutaneous dosing 1, 1.5, 2, 2.5 hours after infection), the “CD50 Value mg/kg (total dose)” value was determined as 8.8 mg/kg. Moreover, the “tolerance of maximum total dose” value in data set [11] is on record as “tolerated”.

Turning to `CC[S+]([O-])C1=C(C(=O)OCc2ccccc2)N2C(=O)CC2C1` (centres unmarked) [Compound 57, Benzyl 3-ethylsulphinyl-7-oxo-1-azabicyclo[3.2.0]hept-2-ene-2-carboxylate], the IC50 in data set [1] was 28.2 µM. Also, the inhibition at 50 µg/mL in data set [2] stood at 19%. Also, the “amount of inhibition” value came to 17% in [3] (at 50 μg/ml (asterisked)) and 47% in data set [13]. Moreover, in data set [12], the “concentration of compound for 50% inhibition of enzyme” value was found to be 3.5 µg/mL.

In the case of `CC(=O)NCC[S+]([O-])C1=C(C(=O)OCc2ccccc2)N2C(=O)CC2C1` (centres unmarked) [Compound 63, Benzyl 3-(2-acetamidoethylsulphinyl)-7-oxo-1-azabicyclo[3.2.0]hept-2-ene-2-carboxylate], the figures for the inhibition at 20 µg/mL in data set [5] (setting [14]) and in data set [6] were 29% and 16%, respectively. For the same compound, the “concentration of compound for 50% inhibition of enzyme” value in data set [8] was 3.3 µg/mL.

As for `CC(=O)Nc1ccc([S+]([O-])C2=C(C(=O)OCc3ccccc3)N3C(=O)CC3C2)cc1` (centres unmarked) [Compound 65, Benzyl 3-p-acetamidophenylsulphinyl-7-oxo-1-azabicyclo[3.2.0]hept-2-ene-2-carboxylate], the IC50 in data set [1] was 0.825 µM. Besides, the inhibition at 50 µg/mL was 47% in [2] and 35% in data set [4].

Turning to `CC(=O)Nc1ccc([S+]([O-])C2=C(C(=O)OCc3ccccc3)N3C(=O)CC3C2)cc1` (centres unmarked) [Compound 67, Benzyl 3-p-acetamidophenylsulphinyl-7-oxo-1-azabicyclo[3,2,0]hept-2-ene-2-carboxylate], the IC50 in [1] is 1.84 µM; in data set [2], 118 µM.

`COC(=O)C=CCC1C(=O)N2C1CC(Cl)([S+]([O-])c1ccccc1)C2C(=O)OCc1ccccc1` (stereo not drawn) [Compound 68, Benzyl 3-chloro-6-(3-methoxycarbonylprop-2-ene-1-yl)-7-oxo-3-phenylsulphinyl-1-azabicyclo[3.2.0]heptane-2α-carboxylate]: the IC50 in data set [5] (setting [15]) is 15.9 µM. Also, the inhibition at 20 µg/mL in data set [6] was determined as 25%. In addition, the “concentration of compound for 50% inhibition of enzyme” value in data set [8] is 0.6 µg/mL.

In the case of `COC(=O)C=CCC1C(=O)N2C(C(=O)OCc3ccccc3)=C([S+]([O-])c3ccccc3)CC12` (centres unmarked) [Compound 69, Benzyl 6-(3-methoxycarbonylprop-2-en-1-yl)-7-oxo-3-phenylsulphnyl-1-azabicyclo[3.2.0]hept-2-ene-2-carboxylate], the IC50 in data set [5] (setting [15]) is 26.2 µM. In addition, the inhibition at 20 µg/mL in [6] amounted to 23%. For the same compound, the “concentration of compound for 50% inhibition of enzyme” value in data set [8] worked out at 2.4 µg/mL. The “amount of inhibition” value in data set [7] is on record as 44%.

For the compound `COC(=O)C=CCC1C(=O)N2C(C(=O)OCc3ccccc3)=C([S+]([O-])c3ccccc3)CC12` (centres unmarked) [Compound 71, Benzyl 6-(3-methoxycarbonylprop-2-en-1-yl)-7-oxo-3-phenylsulphinyl-1-azabicyclo[3.2.0]hept-2-ene-2-carboxylate], the IC50 in data set [5] (setting [15]) is 18.3 µM. In addition, in [8], the “concentration of compound for 50% inhibition of enzyme” value came out at 2.0 µg/mL.

On to `CC[S+]([O-])C1=C(C(=O)OC2OC(=O)c3ccccc32)N2C(=O)C(CC=CC(=O)OC)C2C1` (centres unmarked) [Compound 78, Phthalidyl 3-ethylsulphinyl-6-(3-methoxycarbonylprop-2-en-1-yl)-7-oxo-1-azabicyclo[3.2.0]hept-2-ene-2-carboxylate], for which the inhibition at 20 µg/mL in data set [5] (setting [14]) turned out to be 16%. The IC50 in data set [6] was 19.2 µM.

As to `CC[S+]([O-])C1=C(C(=O)OCc2ccccc2)N2C(=O)C(Cc3ccccc3)C2C1` (centres unmarked) [Compound 80, Benzyl 6-benzyl-3-ethylsulphinyl-7-oxo-1-azabicyclo[3.2.0]hept-2-ene-2-carboxylate], the figures for the IC50 in data set [1] and in data set [2] were 20.8 µM and 52 µM, respectively. The “concentration of compound for 50% inhibition of enzyme” value in data set [3] is 24 µg/mL.
